This passage reports IC50 results from patent US12011444B2, “N-substituted indole derivatives as PGE2 receptor modulators” (Idorsia Pharmaceuticals Ltd, priority 2015, dated 2024).

Each structure is given as a SMILES string.

As a reminder, the IC50 is the concentration that gives 50% inhibition. A lower IC50 goes with greater potency.

One assay addresses EP4 (Homo sapiens (Human), UniProt P35408). The assay is described as follows: hEP4 cAMP assay (BT549 breast cancer cells, HTRF cAMP). The assay is classed as cell-based. To be noted: antagonistic activity; mean values where measured multiple times. The procedure:
Plate is pre-incubated 45 minutes at room temperature. Subsequently, 2.5 microliters of PGE2 (final conc. 6 nM) are transferred into the assay plate. Plate is incubated 30 minutes at room temperature.

The target in a further assay is EP2 (Homo sapiens (Human), UniProt P43116).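 Also: antagonism of PGE2-stimulated cAMP accumulation in SF295 human glioblastoma cells with endogenous EP2, cAMP read by HTRF, expressed relative to DMSO control.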
EP2, sequence (P43116 whole entry): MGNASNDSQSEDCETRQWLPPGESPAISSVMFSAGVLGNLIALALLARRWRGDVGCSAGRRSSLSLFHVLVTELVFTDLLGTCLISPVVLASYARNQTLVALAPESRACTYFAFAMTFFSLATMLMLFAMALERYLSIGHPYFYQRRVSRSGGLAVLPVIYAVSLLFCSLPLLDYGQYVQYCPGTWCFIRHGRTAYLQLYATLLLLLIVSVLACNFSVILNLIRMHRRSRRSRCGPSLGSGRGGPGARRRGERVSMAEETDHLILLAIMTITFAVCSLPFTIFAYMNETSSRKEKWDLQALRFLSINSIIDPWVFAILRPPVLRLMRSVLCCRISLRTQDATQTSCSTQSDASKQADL

EP4, sequence (P35408 whole entry): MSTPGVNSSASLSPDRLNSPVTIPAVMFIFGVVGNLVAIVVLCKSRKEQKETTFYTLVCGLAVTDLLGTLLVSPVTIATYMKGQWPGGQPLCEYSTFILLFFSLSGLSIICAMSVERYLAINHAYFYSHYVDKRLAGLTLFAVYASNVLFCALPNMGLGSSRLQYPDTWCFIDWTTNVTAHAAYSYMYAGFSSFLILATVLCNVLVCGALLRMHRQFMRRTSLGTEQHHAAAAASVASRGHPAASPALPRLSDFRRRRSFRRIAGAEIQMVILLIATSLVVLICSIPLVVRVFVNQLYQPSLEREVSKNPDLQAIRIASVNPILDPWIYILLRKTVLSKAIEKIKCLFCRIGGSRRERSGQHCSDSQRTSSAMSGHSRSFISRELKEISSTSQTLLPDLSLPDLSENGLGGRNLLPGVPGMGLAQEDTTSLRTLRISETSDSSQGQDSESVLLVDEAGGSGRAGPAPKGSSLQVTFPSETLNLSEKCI

Turning to `COc1cc(F)cc2c1cc(C)n2CCNc1cc(-c2cc(C(F)(F)F)c(C(=O)O)s2)nc(C)n1` [compound 541], the IC50 on EP4 turned out to be 25 nM; against EP2, 19 nM.
In the same order, the values of `CCSc1cc(-c2cc(NCCn3c(C)cc4c(OC)c(F)cc(Cl)c43)ncn2)ccc1C(=O)O` [compound 542] are 522 nM and 44 nM.
For `CCOc1cc(-c2cc(NCCn3c(C)cc4c(C(F)(F)F)ccc(F)c43)ncn2)ccc1C(=O)O` [compound 543], in that order: 250 nM and 990 nM.
In the same order, the values of `Cc1cc(F)cc2c1cc(C)n2CCNc1cc(-c2ccc(-c3csc(C(=O)O)n3)cc2)ncn1` [compound 544] are 178 nM and 47 nM.
Turning to `Cc1cc(F)cc2c1cc(C)n2CCNc1cc(-c2ccc(-c3nc(C(=O)O)cs3)cc2)ncn1` [compound 545], the results for the IC50 against EP4 and at EP2 were 119 nM and 29 nM, respectively.
In the same order, the values of `Cc1ccc(F)c2c1cc(C)n2CCNc1cc(-c2ccc(-c3nc(C(=O)O)cs3)cc2)ncn1` [compound 546] are 57 nM and 16 nM.
For `Cc1cc(F)cc2c1cc(C)n2CCNc1cc(-c2ccc(-c3cncn3C)cc2)ncn1` [compound 547], in that order: 232 nM and 63 nM.
For `Cc1nc(-c2ccc(-c3cc(NCCn4c(C)cc5c(C)cc(F)cc54)ncn3)cc2)c[nH]1` [compound 548], in that order: 61 nM and 6 nM.
In the case of `COc1ccc(F)c2c1cc(C)n2CCNc1cc(-c2ccc(C(=O)NCCN(C)C)cc2)ncn1` [compound 549], the results for the IC50 at EP4 and against EP2 were 865 nM and 131 nM, respectively.
In the same order, the values of `Cc1cc2c(Cl)cc(Cl)cc2n1CCNc1cc(-c2ccc(-c3csc(C(=O)O)n3)cc2)ncn1` [compound 550] are 573 nM and 33 nM.
For `Cc1cc2c(Cl)cc(Cl)cc2n1CCNc1cc(-c2ccc(-c3nc(C(=O)O)cs3)cc2)ncn1` [compound 551], in that order: 339 nM and 5 nM.
For `Cc1cc(F)cc2c1cc(C)n2CCNc1cc(-c2ccc(-c3cnc(N)o3)cc2)ncn1` [compound 552], the IC50 at EP4 was found to be 118 nM; against EP2 it was 26 nM.
For `Cc1nnc(-c2ccc(-c3cc(NCCn4c(C)cc5c(C)ccc(F)c54)ncn3)cc2)o1` [compound 553], in that order: 192 nM and 102 nM.
In the same order, the values of `CCNC(=O)Nc1ccc(-c2cc(NCCn3c(C)cc4c(OC)ccc(Cl)c43)ncn2)cc1OC` [compound 554] are 65 nM and 56 nM.
Take `CCNC(=O)Nc1ccc(-c2cc(NCCn3c(C)cc4c(OC)ccc(F)c43)ncn2)cc1OC` [compound 555, 1-Ethyl-3-(4-{6-[2-(7-fluoro-4-methoxy-2-methyl-indol-1-yl)-ethylamino]-pyrimidin-4-yl}-2-methoxy-phenyl)-urea]: the IC50 was 28 nM against EP4 and 23 nM against EP2.
For `COc1ccc(F)c2c1cc(C)n2CCNc1cc(-c2cccc(-n3cccn3)c2)ncn1` [compound 556], in that order: 418 nM and 54 nM.
In the same order, the values of `COc1cccc2c1cc(C)n2CCNc1cc(-c2ccc(-c3nc(C(=O)O)cs3)cc2)ncn1` [compound 557] are 78 nM and 5 nM.
For `COc1cc(F)cc2c1cc(C)n2CCNc1cc(-c2ccc(-c3ccon3)cc2)ncn1` [compound 558], in that order: 111 nM and 16 nM.
For the compound `Cc1ccc(F)c2c1cc(C)n2CCNc1cc(-c2ccc(C(=O)O)c(NCC(F)(F)F)c2)ncn1` [compound 560, 4-{6-[2-(7-Fluoro-2,4-dimethyl-indol-1-yl)-ethylamino]-pyrimidin-4-yl}-2-(2,2,2-trifluoro-ethylamino)-benzoic acid], the results for the IC50 against EP4 and at EP2 were 107 nM and 7 nM, respectively.
For `Cc1ccc(F)c2c1cc(C)n2CCNc1cc(-c2ccc(-c3ccccn3)cc2)ncn1` [compound 561], in that order: 374 nM and 102 nM.
For `CCOc1cc(-c2cc(NCCn3c(C)cc4c(C)ccc(F)c43)ncn2)ccc1CNCCOC` [compound 562], in that order: 547 nM and 359 nM.
Regarding `CNS(=O)(=O)c1ccc(-c2cc(NCCn3c(C)cc4c(C)ccc(F)c43)ncn2)cc1C(F)(F)F` [compound 563], the IC50 at EP4 stood at 601 nM; at EP2, 111 nM.
In the same order, the values of `COc1ccc(F)c2c1cc(C)n2CCNc1cc(-c2ccc(C3(C(=O)O)CC3)c(F)c2)ncn1` [compound 564] are 317 nM and 75 nM.
In the same order, the values of `Cc1nc(-c2ccc(-c3cc(NCCn4c(C)cc5c(C)cc(F)cc54)ncn3)cc2)co1` [compound 565] are 434 nM and 77 nM.
In the same order, the values of `COc1cccc2c1cc(C)n2CCNc1cc(-c2ccc(-c3csc(C)n3)cc2)ncn1` [compound 566] are 537 nM and 46 nM.
For the compound `COc1ccc(F)c2c1cc(C)n2CCNc1cc(-c2ccc(S(N)(=O)=O)c(C(F)(F)F)c2)ncn1` [compound 567, 4-{6-[2-(7-Fluoro-4-methoxy-2-methyl-indol-1-yl)-ethylamino]-pyrimidin-4-yl}-2-trifluoromethyl-benzenesulfonamide], the IC50 at EP4 worked out at 89 nM; on EP2 it was 17 nM.
In the same order, the values of `COc1cccc2c1cc(C)n2CCNc1cc(-c2ccc(C(=O)O)c(NCC(F)(F)F)c2)ncn1` [compound 568, 4-{6-[2-(4-Methoxy-2-methyl-indol-1-yl)-ethylamino]-pyrimidin-4-yl}-2-(2,2,2-trifluoro-ethylamino)-benzoic acid] are 118 nM and 1 nM.
For `Cc1cc(F)cc2c1cc(C)n2CCNc1cc(-c2ccc(-c3nnc(N)s3)cc2)ncn1` [compound 569], in that order: 77 nM and 17 nM.
For `CCCc1cc(-c2cc(NCCn3c(C)cc4c(OC(F)(F)F)ccc(F)c43)ncn2)ccc1C(=O)O` [compound 570], in that order: 309 nM and 773 nM.
As for `COc1cc(F)cc2c1cc(C)n2CCNc1cc(-c2ccc(-c3cnc(N)o3)cc2)ncn1` [compound 572], the values for the IC50 at EP4 and against EP2 were 45 nM and 18 nM, respectively.
In the same order, the values of `COc1ccc(F)c2c1cc(C)n2CCNc1cc(-c2ccc(-c3cnc(N)o3)cc2)ncn1` [compound 573] are 21 nM and 7 nM.
In the same order, the values of `COc1ccc(F)c2c1cc(C)n2CCNc1cc(-c2ccc(-c3nnc(C)o3)cc2)ncn1` [compound 574] are 208 nM and 33 nM.
For `Cc1nc(-c2ccc(-c3cc(NCCn4c(C)cc5c(C)cc(F)c(F)c54)ncn3)cc2)c[nH]1` [compound 575], in that order: 52 nM and 22 nM.
For `Cc1cc(F)c(F)c2c1cc(C)n2CCNc1cc(-c2ccc(-c3cncn3C)cc2)ncn1` [compound 576], the IC50 stood at 355 nM on EP4 and 399 nM on EP2.
For `Cc1cc(F)c(F)c2c1cc(C)n2CCNc1cc(-c2ccc(-c3cnc(N)o3)cc2)ncn1` [compound 577], in that order: 118 nM and 114 nM.
For `COc1cc(F)cc2c1cc(C)n2CCNc1cc(-c2ccc(-c3csc(C(=O)O)n3)cc2)ncn1` [compound 578], the results for the IC50 at EP4 and on EP2 were 52 nM and 9 nM, respectively.
